Columns and labels:
[1] = tested on: ECHCG: barnyardgrass (Echinochloa crus-galli); test: Post-Emergent Test II herbicidal activity; assay type: in vivo; settings: post-emergence, 336 h, 14 days, read-out: Visual Growth Reduction (%) 14 Days After Application ECHCG; for pest or weed control at 35 g/ha: 35 g ai/ha; for pest or weed control at 70 g/ha: 70 g ai/ha; for pest or weed control at 140 g/ha: 140 g ai/ha
Outline: (§1)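 Visual injury rating (0 = no injury, 100 = complete kill) taken 14 d after post-emergent foliar spray, relative to untreated plants. Seedlings at first/second true leaf stage; spray volume 187 L/ha; rates from highest down to 1/16× by serial dilution; subirrigation after treatment.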

[2] = tested on: SETFA: giant foxtail (Setaria faberi); test: Post-Emergent Test II herbicidal activity; assay type: in vivo; settings: post-emergence, 336 h, 14 days, read-out: Visual Growth Reduction (%) 14 Days After Application SETFA; for pest or weed control at 35 g/ha: 35 g ai/ha; for pest or weed control at 70 g/ha: 70 g ai/ha; for pest or weed control at 140 g/ha: 140 g ai/ha
Outline: as §1

[3] = tested on: TRZAS: wheat, spring (Triticum aestivum); test: Post-Emergent Test II herbicidal activity; assay type: in vivo; settings: post-emergence, 336 h, 14 days, read-out: Visual Growth Reduction (%) 14 Days After Application TRZAS; for pest or weed control at 35 g/ha: 35 g ai/ha; for pest or weed control at 70 g/ha: 70 g ai/ha; for pest or weed control at 140 g/ha: 140 g ai/ha
Outline: as §1

[4] = tested on: HELAN: sunflower (Helianthus annuus); test: Post-Emergent Test II herbicidal activity; assay type: in vivo; settings: post-emergence, 336 h, 14 days, read-out: Visual Growth Reduction (%) 14 Days After Application HELAN; for pest or weed control at 35 g/ha: 35 g ai/ha; for pest or weed control at 70 g/ha: 70 g ai/ha; for pest or weed control at 140 g/ha: 140 g ai/ha
Outline: as §1

[5] = tested on: ABUTH: velvetleaf (Abutilon theophrasti); test: Post-Emergent Test II herbicidal activity; assay type: in vivo; settings: post-emergence, 336 h, 14 days, read-out: Visual Growth Reduction (%) 14 Days After Application ABUTH; for pest or weed control at 35 g/ha: 35 g ai/ha; for pest or weed control at 70 g/ha: 70 g ai/ha; for pest or weed control at 140 g/ha: 140 g ai/ha
Outline: as §1

[6] = tested on: CYPES: yellow nutsedge (Cyperus esculentus); test: Post-Emergent Test II herbicidal activity; assay type: in vivo; settings: post-emergence, 336 h, 14 days, read-out: Visual Growth Reduction (%) 14 Days After Application CYPES; for pest or weed control at 35 g/ha: 35 g ai/ha; for pest or weed control at 70 g/ha: 70 g ai/ha; for pest or weed control at 140 g/ha: 140 g ai/ha
Outline: as §1

[7] = tested on: BRSNN: oilseed rape, canola (Brassica napus); test: Post-Emergent Test II herbicidal activity; assay type: in vivo; settings: post-emergence, 336 h, 14 days, read-out: Visual Growth Reduction (%) 14 Days After Application BRSNN; for pest or weed control at 35 g/ha: 35 g ai/ha; for pest or weed control at 70 g/ha: 70 g ai/ha; for pest or weed control at 140 g/ha: 140 g ai/ha
Outline: as §1

[8] = tested on: AMARE: redroot pigweed (Amaranthus retroflexus); test: Post-Emergent Test II herbicidal activity; assay type: in vivo; settings: post-emergence, 336 h, 14 days, read-out: Visual Growth Reduction (%) 14 Days After Application AMARE; for pest or weed control at 35 g/ha: 35 g ai/ha; for pest or weed control at 70 g/ha: 70 g ai/ha; for pest or weed control at 140 g/ha: 140 g ai/ha
Outline: as §1

[9] = tested on: CHEAL: lambsquarters (Chenopodium album); test: Post-Emergent Test II herbicidal activity; assay type: in vivo; settings: post-emergence, 336 h, 14 days, read-out: Visual Growth Reduction (%) 14 Days After Application CHEAL; for pest or weed control at 35 g/ha: 35 g ai/ha; for pest or weed control at 70 g/ha: 70 g ai/ha; for pest or weed control at 140 g/ha: 140 g ai/ha
Outline: as §1

[10] = tested on: ORYSA: rice (Oryza sativa); test: Post-Emergent Test II herbicidal activity; assay type: in vivo; settings: post-emergence, 336 h, 14 days, read-out: Visual Growth Reduction (%) 14 Days After Application ORYSA; for pest or weed control at 35 g/ha: 35 g ai/ha; for pest or weed control at 70 g/ha: 70 g ai/ha; for pest or weed control at 140 g/ha: 140 g ai/ha
Outline: as §1

[11] = tested on: EPHHL: wild poinsettia (Euphorbia heterophylla); test: Post-Emergent Test II herbicidal activity; assay type: in vivo; settings: post-emergence, 336 h, 14 days, read-out: Visual Growth Reduction (%) 14 Days After Application EPHHL; for pest or weed control at 35 g/ha: 35 g ai/ha; for pest or weed control at 70 g/ha: 70 g ai/ha; for pest or weed control at 140 g/ha: 140 g ai/ha
Outline: as §1

[12] = tested on: ZEAMX: maize, corn (Zea mays); test: Post-Emergent Test II herbicidal activity; assay type: in vivo; settings: post-emergence, 336 h, 14 days, read-out: Visual Growth Reduction (%) 14 Days After Application ZEAMX
Outline: as §1

SMILES | melting point [°C] | pest or weed control at 35 g/ha [1] [%] | pest or weed control at 70 g/ha [1] [%] | pest or weed control at 35 g/ha [3] [%] | pest or weed control at 70 g/ha [3] [%] | pest or weed control at 140 g/ha [3] [%] | pest or weed control at 35 g/ha [4] [%] | pest or weed control at 70 g/ha [4] [%] | pest or weed control at 140 g/ha [4] [%] | pest or weed control at 35 g/ha [5] [%] | pest or weed control at 70 g/ha [5] [%] | pest or weed control at 140 g/ha [5] [%] | pest or weed control at 35 g/ha [6] [%] | pest or weed control at 70 g/ha [6] [%] | pest or weed control at 140 g/ha [6] [%] | pest or weed control at 35 g/ha [7] [%] | pest or weed control at 70 g/ha [7] [%] | pest or weed control at 140 g/ha [7] [%] | pest or weed control at 35 g/ha [8] [%] | pest or weed control at 70 g/ha [8] [%] | also measured
COC(=O)c1nc(-c2cccc3nonc23)cc(N)c1Cl [Compound 16] | 157 to 160 | 0 to 29 | 0 to 29 | 0 to 29 | 0 to 29 | 0 to 29 | 0 to 29 | 30 to 44 | 60 to 74 | 0 to 29 | 0 to 29 | 0 to 29 | 0 to 29 | 0 to 29 | 0 to 29 | 30 to 44 | 45 to 59 | 60 to 74 | 85 to 94 | 95 to 100 | pest or weed control at 140 g/ha [1]: 0 to 29%; pest or weed control at 35 g/ha [2]: 0 to 29%; pest or weed control at 70 g/ha [2]: 0 to 29%; pest or weed control at 140 g/ha [2]: 0 to 29%; pest or weed control at 140 g/ha [8]: 95 to 100%; pest or weed control at 35 g/ha [9]: 60 to 74%; pest or weed control at 70 g/ha [9]: 75 to 84%; pest or weed control at 140 g/ha [9]: 85 to 94%; pest or weed control at 35 g/ha [10]: 0 to 29%; pest or weed control at 70 g/ha [10]: 0 to 29%; pest or weed control at 140 g/ha [10]: 0 to 29%; pest or weed control at 35 g/ha [11]: 0 to 29%; pest or weed control at 70 g/ha [11]: 0 to 29%; pest or weed control at 140 g/ha [11]: 0 to 29%
COC(=O)c1nc(-c2ccc3nonc3c2)c(F)c(N)c1Cl [Compound 1, Methyl 4-amino-6-(benzo[c][1,2,5]oxadiazol-5-yl)-3-chloro-5-fluoropicolinate] | 180 to 182 | 75 to 84 | 75 to 84 | 45 to 59 | 45 to 59 | 60 to 74 | 85 to 94 | 95 to 100 | 95 to 100 | 85 to 94 | 85 to 94 | 95 to 100 | 0 to 29 | 0 to 29 | 95 to 100 | 60 to 74 | 60 to 74 | 60 to 74 | 75 to 84 | 75 to 84 | pest or weed control at 35 g/ha ([12]; 35 g ai/ha): 60 to 74%; pest or weed control at 70 g/ha ([12]; 70 g ai/ha): 60 to 74%; pest or weed control at 140 g/ha ([12]; 140 g ai/ha): 60 to 74%; pest or weed control at 140 g/ha [8]: 95 to 100%; pest or weed control at 35 g/ha [9]: 95 to 100%; pest or weed control at 70 g/ha [9]: 95 to 100%; pest or weed control at 140 g/ha [9]: 95 to 100%; pest or weed control at 35 g/ha [10]: 0 to 29%; pest or weed control at 70 g/ha [10]: 0 to 29%; pest or weed control at 140 g/ha [10]: 0 to 29%; pest or weed control at 35 g/ha [11]: 60 to 74%; pest or weed control at 70 g/ha [11]: 60 to 74%; pest or weed control at 140 g/ha [11]: 60 to 74%
COC(=O)c1nc(-c2ccc3nonc3c2OC)cc(N)c1Cl [Compound 9, Methyl 4-amino-3-chloro-6-(4-methoxybenzo[c][1,2,5]oxadiazol-5-yl)picolinate] | 142 to 144 | 0 to 29 | 0 to 29 | 0 to 29 | 0 to 29 | 0 to 29 | 0 to 29 | 0 to 29 | 0 to 29 | 0 to 29 | 0 to 29 | 0 to 29 | 0 to 29 | 0 to 29 | 0 to 29 | 0 to 29 | 0 to 29 | 0 to 29 | 45 to 59 | 60 to 74 | pest or weed control at 140 g/ha [1]: 0 to 29%; pest or weed control at 35 g/ha [2]: 0 to 29%; pest or weed control at 70 g/ha [2]: 0 to 29%; pest or weed control at 140 g/ha [2]: 0 to 29%; pest or weed control at 140 g/ha [8]: 60 to 74%; pest or weed control at 35 g/ha [9]: 60 to 74%; pest or weed control at 70 g/ha [9]: 60 to 74%; pest or weed control at 140 g/ha [9]: 75 to 84%; pest or weed control at 35 g/ha [10]: 0 to 29%; pest or weed control at 70 g/ha [10]: 0 to 29%; pest or weed control at 140 g/ha [10]: 0 to 29%; pest or weed control at 35 g/ha [11]: 0 to 29%; pest or weed control at 70 g/ha [11]: 0 to 29%; pest or weed control at 140 g/ha [11]: 0 to 29%

From patent publication US9006250B2, “4-amino-6-(heterocyclic)picolinates and 6-amino-2-(heterocyclic)pyrimidine-4-carboxylates and their use as herbicides” (Dow AgroSciences, LLC, priority 2013, dated 2015)
